Reference: US6737383B1, “Herbicidal oxadiazolidines” (priority 1999, dated 2004)

Columns and labels:
[1] = tested on: sugar beet; experiment: Test B pre/postemergence sugar beet; assay type: in vivo, Beta vulgaris
Summary of the method: (§1)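 Test chemicals in a non-phytotoxic solvent mixture with surfactant were sprayed preemergence onto planted seeds and postemergence onto plants 2 to 18 cm tall (1- to 4-leaf stage). After twelve to sixteen days in a greenhouse, injury was visually rated against untreated controls from 0 (no effect) to 10 (complete control).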

[2] = tested on: pigweed; experiment: Test B pre/postemergence pigweed; assay type: in vivo, Amaranthus retroflexus
Summary of the method: as §1

[3] = tested on: rice; experiment: Test B flood test rice; assay type: in vivo, Oryza sativa; conditions: for Plant response rating, Rice (0 to 10 scale, 0 is no effect, 10 is complete control): Rate 62 g/ha; for Plant response rating, Rice (0 to 10 scale, 0 is no effect, 10 is complete control) / Rice plant response rating (0 to 10 scale, 0 is no effect, 10 is complete control): flood test species, visual evaluation after twelve to sixteen days; for Rice plant response rating (0 to 10 scale, 0 is no effect, 10 is complete control): Rate 125 g/ha, under heading Pre-emergence
Summary of the method: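 Each value is a visual injury score relative to controls, with 10 meaning complete control and 0 no effect. Evaluation took place twelve to sixteen days after the 2-leaf-stage plants were treated and kept in the greenhouse.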

[4] = tested on: purple nutsedge; experiment: Test B pre/postemergence purple nutsedge; assay type: in vivo, Cyperus rotundus
Summary of the method: as §1

[5] = Postemergence, Rate 62 g/ha, scale of 0 to 10, 0 is no effect, 10 is complete control
[6] = Postemergence, Rate 500 g/ha, scale of 0 to 10 where 0 is no effect and 10 is complete control
[7] = Preemergence, Rate 62 g/ha, scale 0 to 10 (0 no effect, 10 complete control)
[8] = Preemergence, Rate 125 g/ha, scale 0 to 10, 0 is no effect, 10 is complete control
[9] = Preemergence, Rate 500 g/ha, scale of 0 to 10 where 0 is no effect and 10 is complete control
[10] = Rate 250 g/ha, Postemergence, scale of 0 to 10 where 0 is no effect and 10 is complete control
[11] = Rate 250 g/ha, Pre-emergence (flood test species), scale 0 to 10, 0 is no effect, 10 is complete control
[12] = Rate 500 g/ha, Pre-emergence section of Table B, 0 to 10 scale (0 no effect, 10 complete control)
[13] = Postemergence, Rate 125 g/ha, scale 0 to 10, 0 is no effect, 10 is complete control
[14] = Postemergence, Rate 125 g/ha, scale of 0 to 10 where 0 is no effect and 10 is complete control
[15] = Postemergence, Rate 250 g/ha, scale of 0 to 10, 0 is no effect, 10 is complete control
[16] = Postemergence, Rate 1000 g/ha, scale 0 to 10 (0 no effect, 10 complete control)
[17] = Preemergence, Rate 125 g/ha, scale of 0 to 10 where 0 is no effect and 10 is complete control
[18] = Rate 1000 g/ha, Preemergence, scale 0 to 10 (0 no effect, 10 complete control)
[19] = Pre-emergence, Rate 1000 g/ha, scale 0 to 10 (0 no effect, 10 complete control)
[20] = Postemergence, Rate 62 g/ha, scale 0 to 10, 0 is no effect, 10 is complete control
[21] = Preemergence, Rate 250 g/ha, scale 0 to 10 (0 no effect, 10 complete control)

Row | SMILES | Plant response rating, Sugarbeets [1, 6] | Sugarbeets plant response rating [1, 7] | Sugarbeets plant response rating [1, 9] | Plant response rating, Redroot pigweed [2, 6] | Redroot pigweed plant response rating [2, 7] | Redroot pigweed plant response rating [2, 9] | Plant response rating, Rice (0 to 10 scale, 0 is no effect, 10 is complete control) ([3]; Pre-emergence) | Rice plant response rating (0 to 10 scale, 0 is no effect, 10 is complete control) [3] | Rice plant response rating [3, 11] | Rice plant response rating [3, 12] | Plant response rating, Nutsedge [4, 6] | Nutsedge plant response rating [4, 7] | Nutsedge plant response rating [4, 9] | Plant response rating, Sugarbeets [1, 14] | Sugarbeets plant response rating [1, 15] | Redroot pigweed plant response rating [2, 15] | Redroot pigweed plant response rating [2, 17] | Plant response rating, Nutsedge [4, 14] | Nutsedge plant response rating [4, 15] | Nutsedge plant response rating [4, 17] | further results
1 | CCCCn1c(=O)on(C(=O)N(c2ccccc2)C(C)C)c1=O [Compound 556] | 0 | 0 | 0 | 4 | 0 | 5 | 0 | 0 | 0 | 0 | 0 | 0 | 0 |  |  |  |  |  |  |  | Sugarbeets plant response rating [1, 5]: 0; Sugarbeets plant response rating [1, 8]: 0; Sugarbeets plant response rating (0 to 10 scale) ([1]; Preemergence, Rate 250 g/ha): 0; Plant response rating, Sugarbeets [1, 10]: 0; Redroot pigweed plant response rating [2, 5]: 3; Redroot pigweed plant response rating [2, 8]: 5; Redroot pigweed plant response rating (0 to 10 scale) ([2]; Preemergence, Rate 250 g/ha): 5; Plant response rating, Redroot pigweed [2, 10]: 3; Nutsedge plant response rating [4, 5]: 0; Nutsedge plant response rating [4, 13]: 0; Nutsedge plant response rating [4, 8]: 0; Nutsedge plant response rating (0 to 10 scale) ([4]; Preemergence, Rate 250 g/ha): 0; Plant response rating, Nutsedge [4, 10]: 0
2 | CCCCCCn1c(=O)on(C(=O)N(c2ccccc2)C(C)C)c1=O [Compound 558] | 2 | 0 | 2 | 0 | 0 | 2 |  |  |  | 0 | 0 | 0 | 0 |  |  |  |  |  |  |  | Sugarbeets plant response rating [1, 5]: 0; Sugarbeets plant response rating [1, 8]: 0; Sugarbeets plant response rating (0 to 10 scale) ([1]; Preemergence, Rate 250 g/ha): 0; Plant response rating, Sugarbeets [1, 10]: 2; Redroot pigweed plant response rating [2, 5]: 0; Redroot pigweed plant response rating [2, 8]: 0; Redroot pigweed plant response rating (0 to 10 scale) ([2]; Preemergence, Rate 250 g/ha): 2; Plant response rating, Redroot pigweed [2, 10]: 0; Nutsedge plant response rating [4, 5]: 0; Nutsedge plant response rating [4, 13]: 0; Nutsedge plant response rating [4, 8]: 0; Nutsedge plant response rating (0 to 10 scale) ([4]; Preemergence, Rate 250 g/ha): 0; Plant response rating, Nutsedge [4, 10]: 0
3 | CCOP(=O)(Cn1c(=O)on(C(=O)N(c2ccc(F)cc2)C(C)C)c1=O)OCC [Compound 587] | 0 |  | 0 | 0 |  | 2 |  | 0 | 0 | 0 | 0 |  | 0 | 0 | 0 | 0 | 0 | 0 | 0 | 0 | Sugarbeets plant response rating [1, 16]: 0; Sugarbeets plant response rating [1, 17]: 0; Plant response rating, Sugarbeets [1, 18]: 3; Plant response rating, Redroot pigweed [2, 14]: 0; Redroot pigweed plant response rating [2, 16]: 0; Plant response rating, Redroot pigweed [2, 18]: 3; Rice plant response rating [3, 19]: 0; Nutsedge plant response rating [4, 16]: 0; Plant response rating, Nutsedge [4, 18]: 0
4 | C=CCn1c(=O)on(C(=O)N(c2c(C)cccc2C)C(C)COC)c1=O (stereo not drawn) [Compound 600] | 0 |  |  | 0 |  |  |  | 0 | 0 | 0 | 0 |  |  | 0 | 0 | 0 | 0 | 0 | 0 | 0 | Sugarbeets plant response rating [1, 16]: 0; Sugarbeets plant response rating [1, 17]: 0; Plant response rating, Sugarbeets [1, 9]: 0; Plant response rating, Sugarbeets [1, 18]: 0; Plant response rating, Redroot pigweed [2, 14]: 0; Redroot pigweed plant response rating [2, 16]: 0; Plant response rating, Redroot pigweed [2, 9]: 0; Plant response rating, Redroot pigweed [2, 18]: 0; Rice plant response rating [3, 19]: 0; Nutsedge plant response rating [4, 16]: 0; Plant response rating, Nutsedge [4, 9]: 0; Plant response rating, Nutsedge [4, 18]: 0
5 | CCOC(=O)CC(C(=O)OCC)n1c(=O)on(C(=O)N(c2ccc(F)cc2)C(C)C)c1=O (stereo not drawn) [Compound 615] | 0 | 0 |  | 0 | 0 |  | 0 | 0 | 0 | 0 |  | 0 |  | 0 | 0 | 0 | 0 | 0 | 0 | 0 | Plant response rating, Sugarbeets [1, 20]: 0; Sugarbeets plant response rating [1, 17]: 0; Plant response rating, Sugarbeets [1, 21]: 0; Plant response rating, Sugarbeets [1, 9]: 6; Plant response rating, Redroot pigweed [2, 20]: 0; Plant response rating, Redroot pigweed [2, 14]: 0; Plant response rating, Redroot pigweed [2, 21]: 0; Plant response rating, Redroot pigweed [2, 9]: 4; Plant response rating, Nutsedge [4, 20]: 0; Plant response rating, Nutsedge [4, 21]: 0; Plant response rating, Nutsedge [4, 9]: 0
6 | CCOC(Cn1c(=O)on(C(=O)N(c2ccc(F)cc2)C(C)C)c1=O)OCC [Compound 629] |  | 2 |  |  | 2 |  | 0 | 0 | 0 | 0 | 0 | 0 |  | 0 | 0 | 2 | 10 | 0 | 0 | 2 | Plant response rating, Sugarbeets [1, 20]: 0; Plant response rating, Sugarbeets [1, 21]: 3; Plant response rating, Sugarbeets [1, 9]: 7; Plant response rating, Redroot pigweed [2, 20]: 0; Plant response rating, Redroot pigweed [2, 21]: 10; Plant response rating, Redroot pigweed [2, 9]: 10; Plant response rating, Nutsedge [4, 20]: 0; Plant response rating, Nutsedge [4, 21]: 5; Plant response rating, Nutsedge [4, 9]: 5
